# Test results from patent US11679111B2, “Fatty acid synthase inhibitors” (priority 2016, dated 2023).
# Where two headings read alike, the source gives them in different places.
# Key:
# BT474 cells = assay: Acetate and glucose incorporation into lipids in HER2+ BT474 breast cancer cell line; format: cell-based; details: Homo sapiens
# Experimental: Incorporation of radiolabeled glucose or acetate in total lipids was measured according to published methods (Haystead and Hardie, 1986). HepG2 cells (80% confluent in 12 wells plates) were starved overnight in MEM Alpha, the medium was then changed with DMEM medium containing 0.1 g/L glucose 10% FBS and 5 μM insulin and 1 μCi 3-[^3H] D-glucose or 1 μCi [^3H]-acetate in addition to different concentrations of each compound. After incubation for 1 hour at 37° C., 5% CO2, the cells were washed with ice cold PBS and detached by treating with 100 μl trypsin for 10 min then 1 ml of ice cold PBS was added. The cells suspension was then sonicated for 3 times in 30 seconds intervals and kept on ice. From each well 1 ml of cell lysate was added to a 4 ml scintillation vial and 2 ml of MicroScint-E was added. The vials were mixed thoroughly then centrifuged for 30 min at 3000 rpm and the ^3H radioactivity was measured by liquid scintillation counting.
# T474 cells were seeded in 6 well plates in 10% FBS 4.5 g/L glucose DMEM at a density of 400,000 cells/well. After 24 hours the media was changed with 0.1 g/L glucose DMEM containing different concentrations of HS-106. […] To each fraction, 1 ml of 25 g/L Butyl PBD dissolved in Toluene was added and radioactivity was measured by scintillation counting.
# [1] = test system: MMTV-Neu model of HER2+ breast cancer; assay: Efficacy in MMTV-Neu model of HER2+ breast cancer; format: in vivo, mice; details: 30 pmol/kg IP biweekly, vehicle 29 days
# [2] = 15 mg/kg IP
compound,measurement,setting,value
"Cc1sc2ncnc(NC3CCN(Cc4ccccc4)C3)c2c1C (racemic) [HS-106, N-(1-benzylpyrrolidin-3-yI)-5,6-dimethylthieno[2,3-d]pyrimidin-4-amine]",IC50,"BT474 cells; BT-474, acetate as tracer, read-out: IC50, acetate incorporation into total lipids",~1500 nM
same,IC50,"BT474 cells; BT-474, glucose as tracer, read-out: IC50, glucose incorporation into total lipids",1660 nM
same,median survival,[1],63 days
same,time of appearance in plasma after IP injection,[2],≤ 5 min
